Assay results reported in patent US8388986B2, “Use of cationic surfactants in cosmetic preparations” (priority 2001, dated 2013).

Assays:
[1] = system: Penicillium chrysogenum CECT 2802; test: minimum inhibitory concentration; format: cell-based; conditions: Fungi
[2] = system: inoculum mixture; test: preservative efficacy (Antimicrobial Effectiveness Testing USP 24th Edition), 28 days' check; format: cell-based; conditions: 0.20 g of LAE
Description: (§1) This assay consists of the contamination of the protecting formulations with an inoculum mixture of 10^8 cfu/mL concentration, for each of the microorganisms, and the determination of the number of viable cells in the time. This inoculum mixture is composed of the following microorganisms:
(§2) The cosmetic composition to be analysed is divided into sterile containers with 50 g of product for each flask. Each container is inoculated with 0.5 mL of inoculum (10^8 cfu/mL). The target concentration is 10^6 cfu/mL, approximately. All the containers are kept at a temperature between 20-25° C. and are protected from light.
(§3) The level of the microbial contamination is checked at 0 hours, 7 days, 14 days and 28 days. The number of colonies is evaluated by dilution in buffer peptone with the appropriate neutraliser agent of the preservative. The culture media used for counting the microorganisms are: Soya triptone (35-37° C., 48 hours) for the determination of bacteria; Sabouraud agar with chloramphenicol for fungi and yeast (25° C., 3-5 days).
(§4) According to Antimicrobial Effectiveness Testing USP 24th Edition, 1999 (pp. 1809-1811), an antimicrobial preservative is considered to be effective in topically used products made with aqueous bases or vehicles, non-sterile nasal products and emulsions, including those applied to mucous membranes, if: • Not less than 2.0 logarithm reduction from the initial calculated bacteria's count is reached at 14 days and no increase from the 14 days' count at 28 days is detected; and • No increase from the initial calculated count of yeast and moulds is observed.

[3] = system: Yeast; test: preservative efficacy (Antimicrobial Effectiveness Testing USP 24th Edition) in cosmetic formulations; format: cell-based, Candida albicans ATCC 10231; conditions: 0.20 g of LAE
Description: as §1, §2, §3, §4

[4] = system: Escherichia coli ATCC 8739; test: minimum inhibitory concentration; format: cell-based; conditions: Gram − Bacteria
[5] = system: Aureobasidium pullulans ATCC 9348; test: minimum inhibitory concentration; format: cell-based; conditions: Fungi
[6] = system: Chaetonium globosum ATCC 6205; test: minimum inhibitory concentration; format: cell-based; conditions: Fungi
[7] = system: Bacillus subtilis ATCC 6633; test: minimum inhibitory concentration; format: cell-based; conditions: Gram + Bacteria
[8] = system: Arthrobacter oxydans ATCC 8010; test: minimum inhibitory concentration; format: cell-based; conditions: Gram + Bacteria
[9] = system: Listeria monocytogenes ATCC 7644; test: minimum inhibitory concentration; format: cell-based; conditions: Gram + Bacteria
[10] = system: Gliocadium virens ATCC 4645; test: minimum inhibitory concentration; format: cell-based; conditions: Fungi
[11] = system: Klebsiella pneumoniae var pneumoniae CECT 178; test: minimum inhibitory concentration; format: cell-based; conditions: Gram − Bacteria
[12] = system: Alcaligenes faecalis ATCC 8750; test: minimum inhibitory concentration; format: cell-based; conditions: Gram − Bacteria
[13] = system: Citrobacter freundii ATCC 22636; test: minimum inhibitory concentration; format: cell-based; conditions: Gram − Bacteria
[14] = system: Salmonella typhimurium ATCC 16028; test: minimum inhibitory concentration; format: cell-based; conditions: Gram − Bacteria
[15] = system: Rhodotorula rubra CECT 1158; test: minimum inhibitory concentration; format: cell-based; conditions: Yeast
[16] = system: Enterobacter aerogenes CECT 689; test: minimum inhibitory concentration; format: cell-based; conditions: Gram − Bacteria
[17] = system: Bordetella bronchiseptica ATCC 4617; test: minimum inhibitory concentration; format: cell-based; conditions: Gram − Bacteria
[18] = system: Lactobacillus delbrueckii ssp lactis CECT 372; test: minimum inhibitory concentration; format: cell-based; conditions: Gram + Bacteria
[19] = system: Candida albicans ATCC 10231; test: minimum inhibitory concentration; format: cell-based; conditions: Yeast
[20] = system: Pseudomonas aeruginosa ATCC 9027; test: minimum inhibitory concentration; format: cell-based; conditions: Gram − Bacteria
[21] = system: Proteus mirabilis CECT 170; test: minimum inhibitory concentration; format: cell-based; conditions: Gram − Bacteria
[22] = system: Mycobacterium phlei ATCC 41423; test: minimum inhibitory concentration; format: cell-based; conditions: Gram + Bacteria
[23] = system: Staphylococcus aureus ATCC 6538; test: minimum inhibitory concentration; format: cell-based; conditions: Gram + Bacteria
[24] = system: Saccharomyces cerevisiae ATCC 9763; test: minimum inhibitory concentration; format: cell-based; conditions: Yeast

Structure (SMILES): CCCCCCCCCCCC(=O)N[C@@H](CCCN=C(N)N)C(=O)OCC.Cl [LAE, ethyl ester of the lauramide of the arginine monohydrochloride]
- M.I.C. [1]: 128 ppm
- count at 28 days against the 14 days' count ([2]; Example 1, oil-in-water emulsion with non-ionic surfactant): no increase
- count at 28 days against the 14 days' count ([2]; Example 2, oil-in-water emulsion with an ionic emulsifier): no increase
- count at 28 days against the 14 days' count ([2]; Example 3, water in oil emulsion with non-ionic emulsifiers): no increase
- count at 28 days against the 14 days' count ([2]; Example 4, aqueous solution with a surfactants' mixture (bath gels, disodium cocoamfoacetate)): no increase
- count at 28 days against the 14 days' count ([2]; Example 5, aqueous solution with a surfactants' mixture (bath gels, disodium lauryl sulfosuccinate)): no increase
- count at 28 days against the 14 days' count ([2]; Example 6, hydroalcoholic gel (after-shaving lotions)): no increase
- count at 28 days against the 14 days' count ([2]; Example 7, facial tonic): no increase
- count at 28 days against the 14 days' count ([2]; Example 8, mask-up cleaner): no increase
- count at 28 days against the 14 days' count ([2]; Example 9, fluid oil-in-water emulsion with non-ionic surfactants (body oil)): no increase
- count at 28 days against the 14 days' count ([2]; Example 10, toothpaste formulation): no increase
- count at 28 days against the 14 days' count ([2]; Example 11, aqueous solution with surfactants (shampoos)): no increase
- count at 28 days against the 14 days' count ([2]; Example 12, oil-in-water emulsion with non-ionic surfactants (face cream)): no increase
- count at 28 days against the 14 days' count ([2]; Example 13, oil-in-water emulsion with non-ionic surfactants (sun protector, polysorbate 60)): no increase
- count at 28 days against the 14 days' count ([2]; Example 14, oil-in-water emulsion with non-ionic surfactants (sun protector, cetyl dimethicone copolyol)): no increase
- count at 28 days against the 14 days' count ([2]; Example 15, emulsion for hands care): no increase
- viable count With LAE ([3]; Example 1, oil-in-water emulsion with non-ionic surfactant, 7 days): 9.5 · 10^2 cfu/mL
- viable count With LAE ([3]; Example 1, oil-in-water emulsion with non-ionic surfactant, 14 days): 4.0 · 10^2 cfu/mL
- viable count With LAE ([3]; Example 1, oil-in-water emulsion with non-ionic surfactant, Initial): 5.6 · 10^5 cfu/mL
- viable count With LAE ([3]; Example 2, oil-in-water emulsion with an ionic emulsifier, 7 days): 1.0 · 10^2 cfu/mL
- viable count With LAE ([3]; Example 2, oil-in-water emulsion with an ionic emulsifier, 14 days): 1.0 · 10^2 cfu/mL
- viable count With LAE ([3]; Example 2, oil-in-water emulsion with an ionic emulsifier, Initial): 3.6 · 10^4 cfu/mL
- viable count With LAE ([3]; Example 3, water in oil emulsion with non-ionic emulsifiers, 7 days): <9.9 · 10^1 cfu/mL
- viable count With LAE ([3]; Example 3, water in oil emulsion with non-ionic emulsifiers, 14 days): <9.9 · 10^1 cfu/mL
- viable count With LAE ([3]; Example 3, water in oil emulsion with non-ionic emulsifiers, Initial): 7.0 · 10^4 cfu/mL
- viable count With LAE ([3]; Example 4, aqueous solution with a surfactants' mixture (bath gels, disodium cocoamfoacetate), 7 days): <9.9 · 10^1 cfu/mL
- viable count With LAE ([3]; Example 4, aqueous solution with a surfactants' mixture (bath gels, disodium cocoamfoacetate), 14 days): <9.9 · 10^1 cfu/mL
- viable count With LAE ([3]; Example 4, aqueous solution with a surfactants' mixture (bath gels, disodium cocoamfoacetate), Initial): 4.6 · 10^4 cfu/mL
- viable count With LAE ([3]; Example 5, aqueous solution with a surfactants' mixture (bath gels, disodium lauryl sulfosuccinate), 7 days): <9.9 · 10^1 cfu/mL
- viable count With LAE ([3]; Example 5, aqueous solution with a surfactants' mixture (bath gels, disodium lauryl sulfosuccinate), 14 days): <9.9 · 10^1 cfu/mL
- viable count With LAE ([3]; Example 5, aqueous solution with a surfactants' mixture (bath gels, disodium lauryl sulfosuccinate), Initial): 3.6 · 10^4 cfu/mL
- viable count With LAE ([3]; Example 6, hydroalcoholic gel (after-shaving lotions), 7 days): 1.6 · 10^2 cfu/mL
- viable count With LAE ([3]; Example 6, hydroalcoholic gel (after-shaving lotions), 14 days): <9.9 · 10^1 cfu/mL
- viable count With LAE ([3]; Example 6, hydroalcoholic gel (after-shaving lotions), Initial): 4.2 · 10^4 cfu/mL
- viable count With LAE ([3]; Example 7, facial tonic, 7 days): 1.1 · 10^2 cfu/mL
- viable count With LAE ([3]; Example 7, facial tonic, 14 days): <9.9 · 10^1 cfu/mL
- viable count With LAE ([3]; Example 7, facial tonic, Initial): 1.2 · 10^4 cfu/mL
- viable count With LAE ([3]; Example 8, mask-up cleaner, 7 days): 1.8 · 10^2 cfu/mL
- viable count With LAE ([3]; Example 8, mask-up cleaner, 14 days): <9.9 · 10^1 cfu/mL
- viable count With LAE ([3]; Example 8, mask-up cleaner, Initial): 7.2 · 10^4 cfu/mL
- viable count With LAE ([3]; Example 9, fluid oil-in-water emulsion with non-ionic surfactants (body oil), 7 days): 2.3 · 10^2 cfu/mL
- viable count With LAE ([3]; Example 9, fluid oil-in-water emulsion with non-ionic surfactants (body oil), 14 days): <9.9 · 10^1 cfu/mL
- viable count With LAE ([3]; Example 9, fluid oil-in-water emulsion with non-ionic surfactants (body oil), Initial): 7.2 · 10^4 cfu/mL
- viable count With LAE ([3]; Example 10, toothpaste formulation, 7 days): 1.2 · 10^2 cfu/mL
- viable count With LAE ([3]; Example 10, toothpaste formulation, 14 days): <9.9 · 10^1 cfu/mL
- viable count With LAE ([3]; Example 10, toothpaste formulation, Initial): 4.2 · 10^4 cfu/mL
- viable count With LAE ([3]; Example 11, aqueous solution with surfactants (shampoos), 7 days): 1.2 · 10^2 cfu/mL
- viable count With LAE ([3]; Example 11, aqueous solution with surfactants (shampoos), 14 days): <9.9 · 10^1 cfu/mL
- viable count With LAE ([3]; Example 11, aqueous solution with surfactants (shampoos), Initial): 4.2 · 10^4 cfu/mL
- viable count With LAE ([3]; Example 12, oil-in-water emulsion with non-ionic surfactants (face cream), 7 days): 9.2 · 10^2 cfu/mL
- viable count With LAE ([3]; Example 12, oil-in-water emulsion with non-ionic surfactants (face cream), 14 days): <9.9 · 10^1 cfu/mL
- viable count With LAE ([3]; Example 12, oil-in-water emulsion with non-ionic surfactants (face cream), Initial): 3.2 · 10^4 cfu/mL
- viable count With LAE ([3]; Example 13, oil-in-water emulsion with non-ionic surfactants (sun protector, polysorbate 60), 7 days): 4.2 · 10^2 cfu/mL
- viable count With LAE ([3]; Example 13, oil-in-water emulsion with non-ionic surfactants (sun protector, polysorbate 60), 14 days): <9.9 · 10^1 cfu/mL
- viable count With LAE ([3]; Example 13, oil-in-water emulsion with non-ionic surfactants (sun protector, polysorbate 60), Initial): 3.8 · 10^4 cfu/mL
- viable count With LAE ([3]; Example 14, oil-in-water emulsion with non-ionic surfactants (sun protector, cetyl dimethicone copolyol), 7 days): 4.5 · 10^2 cfu/mL
- viable count With LAE ([3]; Example 14, oil-in-water emulsion with non-ionic surfactants (sun protector, cetyl dimethicone copolyol), 14 days): <9.9 · 10^1 cfu/mL
- viable count With LAE ([3]; Example 14, oil-in-water emulsion with non-ionic surfactants (sun protector, cetyl dimethicone copolyol), Initial): 7.9 · 10^4 cfu/mL
- viable count With LAE ([3]; Example 15, emulsion for hands care, 7 days): 7.2 · 10^2 cfu/mL
- viable count With LAE ([3]; Example 15, emulsion for hands care, 14 days): <9.9 · 10^1 cfu/mL
- viable count With LAE ([3]; Example 15, emulsion for hands care, Initial): 8.6 · 10^4 cfu/mL
- M.I.C. [4]: 32 ppm
- M.I.C. [5]: 16 ppm
- M.I.C. [6]: 16 ppm
- M.I.C. [7]: 16 ppm
- M.I.C. [8]: 64 ppm
- M.I.C. [9]: 10 ppm
- M.I.C. [10]: 32 ppm
- M.I.C. [11]: 32 ppm
- M.I.C. [12]: 64 ppm
- M.I.C. [13]: 64 ppm
- M.I.C. [14]: 32 ppm
- M.I.C. [15]: 16 ppm
- M.I.C. [16]: 32 ppm
- M.I.C. [17]: 128 ppm
- M.I.C. [18]: 16 ppm
- M.I.C. [19]: 16 ppm
- M.I.C. [20]: 64 ppm
- M.I.C. [21]: 32 ppm
- M.I.C. [22]: 2 ppm
- M.I.C. [23]: 32 ppm
- M.I.C. [24]: 32 ppm
